Measurements reported in patent US7119088B2, “Triazole compounds useful in therapy” (Pfizer Inc., priority 2003, dated 2006).
Counter-ions that a name gives are not always drawn.

What follows are compounds tested against T1, human V1A receptor (Homo sapiens, UniProt P37288) (assay: V1A filter binding assay (screen 1.0)). Settings: [3H]-AVP binding to CHO-hV1A membranes; Ki by Cheng-Prusoff.
T1 construct: host or cells: CHO (CHO-hV1A), membrane preparation
Protocol: 1.0 V1A Filter Binding Assay
Receptor binding assays were performed on cellular membranes prepared from CHO cells stably expressing the human V1A receptor, (CHO-hV1A). The CHO-hV1A cell line was kindly provided under a licensing agreement by Marc Thibonnier, Dept. of Medicine, Case Western Reserve University School of Medicine, Cleveland, Ohio. CHO-hV1A cells were routinely maintained at 37° C. in humidified atmosphere with 5% CO2 in DMEM/Hams F12 nutrient mix supplemented with 10% fetal bovine serum, 2 mM L-glutamine, 15 mM HEPES and 400 μg/ml G418. For bulk production of cell pellets, adherent CHO-hV1A cells were grown to confluency of 90–100% in 850 cm^2 roller bottles containing a medium of DMEM/Hams F12 Nutrient Mix supplemented with 10% fetal bovine serum, 2 mM L-glutamine and 15 mM HEPES. Confluent CHO-hV1A cells were washed with phosphate-buffered saline (PBS), harvested into ice cold PBS and centrifuged at 1,000 rpm. Cell pellets were stored at −80° C. until use. Cell pellets were thawed on ice and homogenised in membrane preparation buffer consisting of 50 mM Tris-HCl, pH 7.4, 5 mM MgCl2 and supplemented with a protease inhibitor cocktail, (Roche). The cell homogenate was centrifuged at 1000 rpm, 10 min, 4° C. and the supernatant was removed and stored on ice. The remaining pellet was homogenised and centrifuged as before. The supernatants were pooled and centrifuged at 25,000×g for 30 min at 4° C. The pellet was resuspended in freezing buffer consisting of 50 mM Tris-HCl, pH 7.4, 5 mM MgCl2 and 20% glycerol and stored in small aliquots at −80° C. until use. Protein concentration was determined using Bradford reagent and BSA as a standard.
Protein linearity followed by saturation binding studies were performed on each new batch of membrane. Membrane concentration was chosen that gave specific binding on the linear portion of the curve.
Compounds were tested for their effects on [^3H]-AVP binding to CHO-hV1A membranes, (^3H-AVP; specific activity 65.5 Ci/mmol; NEN Life Sciences). Compounds were solubilised in dimethylsulfoxide (DMSO) and diluted to working concentration of 10% DMSO with assay buffer containing 50 mM Tris-HCL pH 7.4, 5 mM MgCl2 and 0.05% BSA. […] The binding reaction was initiated by the addition of 200 μl membrane and the plates were gently shaken for 60 min at room temperature. […] The filters were washed three times with 1 ml ice cold wash buffer containing 50 mM Tris-HCL pH 7.4 and 5 mM MgCl2. The plates were dried and 50 μl Microscint-O (Packard instruments) was added to each well. The plates were sealed and counted on a TopCount Microplate Scintillation Counter (Packard Instruments). Non-specific binding (NSB) was determined using 1 μM unlabelled d(CH2)5Tyr(Me)AVP ([β-mercapto-β,β-cyclopentamethylenepropionyl,0-Me-Tyr^2,Arg^8]-vasopressin ) (βMCPVP), (Sigma). The radioligand binding data was analysed using a four parameter logistic equation with the min forced to 0%. […] Specific binding was calculated by subtracting the mean NSB cpm from the mean Total cpm. For test compounds the amount of ligand bound to the receptor was expressed as % bound=(sample cpm—mean NSB cpm)/specific binding cpm×100. The % bound was plotted against the concentration of test compound and a sigmoidal curve was fitted. The inhibitory dissociation constant (Ki) was calculated using the Cheng-Prusoff equation: Ki=IC50/(1+[L]/Kd) where [L] is the concentration of ligand present in the well and Kd is the dissociation constant of the radioligand obtained from Scatchard plot analysis.

T1 sequence (P37288 whole entry): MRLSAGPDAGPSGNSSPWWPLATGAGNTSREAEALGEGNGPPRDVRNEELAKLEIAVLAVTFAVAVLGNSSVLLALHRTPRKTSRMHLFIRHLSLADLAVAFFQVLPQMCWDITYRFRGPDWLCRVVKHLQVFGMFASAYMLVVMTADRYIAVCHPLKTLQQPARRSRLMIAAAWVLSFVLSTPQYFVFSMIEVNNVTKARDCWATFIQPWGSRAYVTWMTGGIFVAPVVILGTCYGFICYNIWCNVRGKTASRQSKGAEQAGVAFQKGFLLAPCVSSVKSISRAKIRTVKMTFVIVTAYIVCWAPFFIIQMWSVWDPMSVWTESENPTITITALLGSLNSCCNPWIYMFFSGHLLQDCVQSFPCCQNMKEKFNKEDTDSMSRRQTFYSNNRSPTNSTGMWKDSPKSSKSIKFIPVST

SMILES | Ki [nM]
CN1CCOC(CN2Cc3cc(Cl)ccc3-n3c(nnc3C3CCN(c4ccccn4)CC3)C2)C1 (single isomer, unassigned) [Example 74, 8-Chloro-5-(4-methyl-morpholin-2-ylmethyl)-1-(3,4,5,6-tetrahydro-2H-[1,2′]bipyridinyl-4-yl)-5,6-dihydro-4H-2,3,5,10b-tetraaza-benzo[e]azulene] | 6.02
CN(C)CC(=O)N1Cc2cc(Cl)ccc2-n2c(nnc2C2CCN(c3ccccn3)CC2)C1 [Example 38, 1-[8-Chloro-1-(3,4,5,6-tetrahydro-2H-[1,2′]bipyridinyl-4-yl)-4H,6H-2,3,5,10b-tetraaza-benzo[e]azulen-5-yl]-2-dimethylamino-ethanone] | 4.63
CN1CCOC(CN2Cc3cc(Cl)ccc3-n3c(nnc3C3CCN(c4ccccn4)CC3)C2)C1 (single isomer, unassigned) [Example 73, 8-Chloro-5-(4-methyl-morpholin-2-ylmethyl)-1-(3,4,5,6-tetrahydro-2H-[1,2′]bipyridinyl-4-yl)-5,6-dihydro-4H-2,3,5,10b-tetraaza-benzo[e]azulene] | 6.84
O=C(N1CCOCC1)N1Cc2cc(Cl)ccc2-n2c(nnc2C2CCN(c3ccccn3)CC2)C1 [Example 59] | 1.32
Clc1ccc2c(c1)CN(c1ncccn1)Cc1nnc(C3CCN(c4ccccn4)CC3)n1-2 [Example 93, 8-Chloro-5-pyrimidin-2-yl-1-(3,4,5,6-tetrahydro-2H-[1,2′]bipyridinyl-4-yl)-5,6-dihydro-4H-2,3,5,10b-tetraaza-benzo[e]azulene] | 2.33
CC(C)N1Cc2cc(Cl)ccc2-n2c(nnc2C2CCN(c3ccccn3)CC2)C1 [Example 6, 8-Chloro-5-isopropyl-1-(3,4,5,6-tetrahydro-2H-[1,2′]bipyridinyl-4-yl)-5,6-dihydro-4H-2,3,5,10b-tetraaza-benzo[e]azulene trihydrochloride] | 2.37
CS(=O)(=O)N1Cc2cc(Cl)ccc2-n2c(nnc2C2CCN(c3ncccn3)CC2)C1 [Example 15, 8-Chloro-5-methanesulfonyl-1-(1-pyrimidin-2-yl-piperidin-4-yl)-5,6-dihydro-4H-2,3,5,10b-tetraaza-benzo[e]azulene] | 4.71
CN1CCc2cc(Cl)ccc2-n2c(nnc2C2CCN(c3ncccn3)CC2)C1 [Example 103, 13-Chloro-8-methyl-3-(1-pyrimidin-2-yl-piperidin-4-yl)-2,4,5,8-tetraaza-tricyclo[9.4.0.0*2,6*]pentadeca-1(11),3,5,12,14-pentaene] | 2.02
CN1Cc2cc(Cl)ccc2-n2c(nnc2C2CCN(c3ncccn3)CC2)C1 [Example 13, 8-Chloro-5-methyl-1-(1-pyrimidin-2-yl-piperidin-4-yl)-5,6-dihydro-4H-2,3,5,10b-tetraaza-benzo[e]azulene] | 13.9
CN(C)S(=O)(=O)N1Cc2cc(Cl)ccc2-n2c(nnc2C2CCN(c3ncccn3)CC2)C1 [Example 100, 8-Chloro-1-(1-pyrimidin-2-yl-piperidin-4-yl)-4H,6H-2,3,5,10b-tetraaza-benzo[e]azulene-5-sulphonic acid dimethylamide] | 0.77
Clc1ccc2c(c1)CCOCc1nnc(C3CCN(c4ccccn4)CC3)n1-2 [Example 27, 13-Chloro-3-(3,4,5,6-tetrahydro-2H-[1,2′]bipyridinyl-4-yl)-8-oxa-2,4,5-triaza-tricyclo[9.4.0.0*2,6*]pentadeca-1(11),3,5,12,14-pentaene] | 1.25
CN1CCc2cc(Cl)ccc2-n2c(nnc2C2CCN(c3ccccn3)CC2)C1 [Example 24, 13-Chloro-8-methyl-3-(3,4,5,6-tetrahydro-2H-[1,2′]bipyridinyl-4-yl)-2,4,5,8-tetraaza-tricyclo[9.4.0.0*2,6*]pentadeca-1(11),3,5,12,14-pentaene] | 1
CN1CCc2nnc(C3CCN(c4ccccn4)CC3)n2-c2ccc(Cl)cc2C1 [Example 102, 13-Chloro-9-methyl-3-(3,4,5,6-tetrahydro-2H-[1,2′]bipyridinyl-4-yl)-2,4,5,9-tetraaza-tricyclo[9.4.0.0*2,6*]pentadeca-1(11),3,5,12,14-pentaene] | 4.16
